Test results published in PubChem BioAssay AID256 (DTP/NCI, 2004).
Several values for one entry are separate records, joined by “and”; a condition that tells them apart may be missing. Identical values can stand only once. Toxic doses and inconclusive results are not listed.

Tested on: CD2F1 mice, L1210 leukemia ip, survival T/C
Assay: NCI In Vivo Anticancer Drug Screen. Data for tumor model L1210 Leukemia (intraperitoneal) in CD2F1 (CDF1) mice
Details: higher = longer survival
How it was run: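 Each value reflects a quotient of treated over vehicle control outcomes in mice with a transplanted tumor.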

[1] = endpoint: mean survival time, dose: 100.0 mg/kg/injection, schedule: Q01DX009 (ip), vehicle: saline with Tween-80
[2] = endpoint: mean survival time, dose: 200.0 mg/kg/injection, schedule: Q01DX009 (ip), vehicle: saline with Tween-80
[3] = endpoint: mean survival time, dose: 400.0 mg/kg/injection, schedule: Q01DX009 (ip), vehicle: saline with Tween-80
[4] = endpoint: mean survival time, dose: 100.0 mg/kg/injection, schedule: Q01DX001 (ip), vehicle: saline
[5] = endpoint: mean survival time, dose: 100.0 mg/kg/injection, schedule: Q01DX001 (ip), vehicle: saline with Tween-80
[6] = endpoint: mean survival time, dose: 200.0 mg/kg/injection, schedule: Q01DX001 (ip), vehicle: saline with Tween-80
[7] = endpoint: mean survival time, dose: 100.0 mg/kg/injection, schedule: Q04DX003 (ip), vehicle: saline with Tween-80
[8] = endpoint: mean survival time, dose: 200.0 mg/kg/injection, schedule: Q04DX003 (ip), vehicle: saline with Tween-80
[9] = endpoint: mean survival time, dose: 400.0 mg/kg/injection, schedule: Q04DX003 (ip), vehicle: saline with Tween-80
[10] = endpoint: mean survival time, dose: 75.0 mg/kg/injection, schedule: Q01DX001 (ip), vehicle: saline

CC(=O)Nc1cccc(C(C)=O)c1[N+](=O)[O-]
T/C [1]: 102 % of control
T/C [2]: 97 % of control
T/C [3]: 93 % of control

COc1ccc(-c2sc(/N=C/c3ccc(-c4ccccc4)cc3)c(C#N)c2C)cc1OC
T/C [1]: 97 % of control
T/C [2]: 100 % of control
T/C [3]: 91 % of control

CN(C)c1ccc(N=Nc2cccc(C(=O)[O-])c2)cc1.CN(C)c1ccc(N=Nc2cccc(C(=O)[O-])c2)cc1.NC1CCCCC1N.O=[N+]([O-])O.[Pt+4]
T/C (endpoint: median survival time, dose: 3.12 mg/kg/injection, schedule: Q04DX003 (ip), vehicle: saline with Tween-80): 104 % of control and 108 % of control
T/C (endpoint: median survival time, dose: 6.25 mg/kg/injection, schedule: Q04DX003 (ip), vehicle: saline with Tween-80): 105 % of control and 110 % of control
T/C (endpoint: median survival time, dose: 12.5 mg/kg/injection, schedule: Q04DX003 (ip), vehicle: saline with Tween-80): 120 % of control and 105 % of control
T/C (endpoint: median survival time, dose: 25.0 mg/kg/injection, schedule: Q04DX003 (ip), vehicle: saline with Tween-80): 110 % of control
T/C (endpoint: median survival time, dose: 100.0 mg/kg/injection, schedule: Q04DX003 (ip), vehicle: saline with Tween-80): 212 % of control and 313 % of control
T/C (endpoint: median survival time, dose: 200.0 mg/kg/injection, schedule: Q04DX003 (ip), vehicle: saline with Tween-80): 361 % of control

[Cl][Pt+2][Cl].[NH-]C1CCCC1[NH-] (stereo not drawn)
T/C (endpoint: median survival time, dose: 10.0 mg/kg/injection, schedule: Q04DX003 (ip), vehicle: Klucel (hydroxypropylcellulose) (HPC)): 166 % of control and 173 % of control
T/C (endpoint: median survival time, dose: 20.0 mg/kg/injection, schedule: Q04DX003 (ip), vehicle: Klucel (hydroxypropylcellulose) (HPC)): 196 % of control and 333 % of control

Cc1cc(C)c(CCl)cc1CCl
T/C (endpoint: mean survival time, dose: 12.5 mg/kg/injection, schedule: Q01DX009 (ip), vehicle: saline with Tween-80): 100 % of control
T/C (endpoint: mean survival time, dose: 25.0 mg/kg/injection, schedule: Q01DX009 (ip), vehicle: saline with Tween-80): 98 % of control
T/C (endpoint: mean survival time, dose: 50.0 mg/kg/injection, schedule: Q04DX003 (ip), vehicle: saline with Tween-80): 103 % of control

C=C(COC(C)(C)C)CN(C)C
T/C (endpoint: mean survival time, dose: 50.0 mg/kg/injection, schedule: Q01DX009 (ip), vehicle: saline with Tween-80): 98 % of control
T/C [1]: 104 % of control

Nc1nc(N)c2nc(CSc3ccc(C(=O)NC(CCC(=O)O)C(=O)O)cc3)cnc2n1 (stereo not drawn)
T/C (endpoint: mean survival time, dose: 1.5 mg/kg/injection, schedule: Q01DX009 (ip), vehicle: distilled water + Tween-80): 96 % of control
T/C (endpoint: mean survival time, dose: 3.0 mg/kg/injection, schedule: Q01DX009 (ip), vehicle: distilled water + Tween-80): 86 % of control
T/C (endpoint: mean survival time, dose: 6.0 mg/kg/injection, schedule: Q01DX009 (ip), vehicle: distilled water + Tween-80): 100 % of control and 101 % of control
T/C (endpoint: mean survival time, dose: 12.0 mg/kg/injection, schedule: Q01DX009 (ip), vehicle: distilled water + Tween-80): 115 % of control and 110 % of control
T/C (endpoint: mean survival time, dose: 24.0 mg/kg/injection, schedule: Q01DX009 (ip), vehicle: distilled water + Tween-80): 117 % of control and 120 % of control

CCOC(=O)c1ccc(Oc2ncc([N+](=O)[O-])s2)cc1
T/C (endpoint: mean survival time, dose: 4.95 mg/kg/injection, schedule: Q01DX009 (ip), vehicle: saline with Tween-80): 100 % of control
T/C (endpoint: mean survival time, dose: 7.42 mg/kg/injection, schedule: Q01DX009 (ip), vehicle: saline with Tween-80): 95 % of control

O=C(CC(C(=O)c1ccccc1)c1ccccc1)c1ccccc1 (stereo not drawn)
T/C (endpoint: mean survival time, dose: 100.0 mg/kg/injection, schedule: Q01DX001 (ip), vehicle: Klucel (hydroxypropylcellulose) (HPC)): 90 % of control
T/C (endpoint: mean survival time, dose: 200.0 mg/kg/injection, schedule: Q01DX001 (ip), vehicle: Klucel (hydroxypropylcellulose) (HPC)): 101 % of control
T/C (endpoint: mean survival time, dose: 400.0 mg/kg/injection, schedule: Q01DX001 (ip), vehicle: Klucel (hydroxypropylcellulose) (HPC)): 98 % of control

CC1(C)N=C(N)N=C(N)N1c1ccc(CC(=O)Nc2ccc(S(=O)(=O)F)cc2)cc1
T/C [4]: 102 % of control
T/C (endpoint: mean survival time, dose: 200.0 mg/kg/injection, schedule: Q01DX001 (ip), vehicle: saline): 97 % of control
T/C (endpoint: mean survival time, dose: 400.0 mg/kg/injection, schedule: Q01DX001 (ip), vehicle: saline): 96 % of control

CC(N)C12CC3CC(CC(C3)C1)C2 (stereo not drawn)
T/C (endpoint: mean survival time, dose: 25.0 mg/kg/injection, schedule: Q01DX009 (ip), vehicle: saline): 117 % of control
T/C (endpoint: mean survival time, dose: 50.0 mg/kg/injection, schedule: Q01DX009 (ip), vehicle: saline): 98 % of control
T/C (endpoint: mean survival time, dose: 100.0 mg/kg/injection, schedule: Q01DX009 (ip), vehicle: saline): 95 % of control

Oc1ccc(Br)cc1/C=N/c1nc(-c2ccccc2)cs1.Oc1ccc(Br)cc1/C=N/c1nc(-c2ccccc2)cs1.[Zn]
T/C (endpoint: mean survival time, dose: 25.0 mg/kg/injection, schedule: Q01DX001 (ip), vehicle: saline): 100 % of control
T/C (endpoint: mean survival time, dose: 50.0 mg/kg/injection, schedule: Q01DX001 (ip), vehicle: saline): 100 % of control
T/C [4]: 100 % of control

O=C(Cl)N(c1ccccc1)c1ccccc1
T/C [5]: 91 % of control
T/C [6]: 100 % of control

CCOC(=O)CC(=O)c1[nH]c(C)c(C(=O)OCC)c1C
T/C [7]: 101 % of control
T/C [8]: 103 % of control
T/C [9]: 101 % of control

N#CC(=C1SCS1)[N+](=O)[O-]
T/C (endpoint: mean survival time, dose: 0.37 mg/kg/injection, schedule: Q01DX009 (ip), vehicle: saline with Tween-80): 101 % of control and 102 % of control
T/C (endpoint: mean survival time, dose: 0.75 mg/kg/injection, schedule: Q01DX009 (ip), vehicle: saline with Tween-80): 101 % of control
T/C (endpoint: mean survival time, dose: 1.5 mg/kg/injection, schedule: Q01DX009 (ip), vehicle: saline with Tween-80): 100 % of control and 102 % of control
T/C (endpoint: mean survival time, dose: 3.0 mg/kg/injection, schedule: Q01DX009 (ip), vehicle: saline with Tween-80): 102 % of control and 104 % of control
T/C (endpoint: mean survival time, dose: 6.0 mg/kg/injection, schedule: Q01DX009 (ip), vehicle: saline with Tween-80): 108 % of control
T/C (endpoint: mean survival time, dose: 12.0 mg/kg/injection, schedule: Q01DX009 (ip), vehicle: saline with Tween-80): 106 % of control

NC(=O)NC1CCCCCCC1
T/C [1]: 102 % of control
T/C [2]: 100 % of control
T/C [3]: 110 % of control

O=C1CCCC1CC1CCCC1=O (stereo not drawn)
T/C [1]: 102 % of control
T/C [2]: 106 % of control
T/C [3]: 106 % of control

NCC1OC(CO)C(O)C1O (stereo not drawn)
T/C (endpoint: mean survival time, dose: 100.0 mg/kg/injection, schedule: Q04DX003 (ip), vehicle: saline): 91 % of control
T/C (endpoint: mean survival time, dose: 200.0 mg/kg/injection, schedule: Q04DX003 (ip), vehicle: saline): 100 % of control
T/C (endpoint: mean survival time, dose: 400.0 mg/kg/injection, schedule: Q04DX003 (ip), vehicle: saline): 104 % of control

N#CCOc1cccc([N+](=O)[O-])c1
T/C [7]: 103 % of control
T/C [8]: 96 % of control

O=NN(CCOS(=O)(=O)c1ccc(Br)cc1)C(=O)NC1CCCCC1
T/C (endpoint: mean survival time, dose: 100.0 mg/kg/injection, schedule: Q01DX001 (ip), vehicle: other): 102 % of control
T/C (endpoint: mean survival time, dose: 200.0 mg/kg/injection, schedule: Q01DX001 (ip), vehicle: other): 101 % of control

CC(=O)Nc1ccc2c(c1)Cc1cc(NC(C)=O)c(Cl)cc1-2
T/C [7]: 103 % of control
T/C [8]: 97 % of control
T/C [9]: 98 % of control

FC1(F)C(Cl)=[C]([Hg][C]2=C(Cl)C(F)(F)C(F)(F)C2(F)F)C(F)(F)C1(F)F
T/C [10]: 98 % of control

OCC(O)C(O)C(O)C(/C=N/Nc1ccccc1)=N/Nc1ccccc1 (stereo not drawn)
T/C [10]: 95 % of control
T/C (endpoint: mean survival time, dose: 150.0 mg/kg/injection, schedule: Q01DX001 (ip), vehicle: saline): 95 % of control
T/C (endpoint: mean survival time, dose: 300.0 mg/kg/injection, schedule: Q01DX001 (ip), vehicle: saline): 95 % of control

[O-]c1cc2c3c(c1)c1cc4c(cc1c[n+]3C=C2)OCO4
T/C (endpoint: mean survival time, dose: 3.13 mg/kg/injection, schedule: Q01DX009 (ip), vehicle: other): 100 % of control
T/C (endpoint: mean survival time, dose: 3.13 mg/kg/injection, schedule: Q01DX009 (ip), vehicle: water): 114 % of control
T/C (endpoint: mean survival time, dose: 6.25 mg/kg/injection, schedule: Q01DX009 (ip), vehicle: other): 109 % of control
T/C (endpoint: mean survival time, dose: 6.25 mg/kg/injection, schedule: Q01DX009 (ip), vehicle: water): 120 % of control and 122 % of control
T/C (endpoint: mean survival time, dose: 12.5 mg/kg/injection, schedule: Q01DX009 (ip), vehicle: other): 110 % of control
T/C (endpoint: mean survival time, dose: 12.5 mg/kg/injection, schedule: Q01DX009 (ip), vehicle: water): 124 % of control
T/C (endpoint: mean survival time, dose: 25.0 mg/kg/injection, schedule: Q01DX009 (ip), vehicle: other): 118 % of control
T/C (endpoint: mean survival time, dose: 25.0 mg/kg/injection, schedule: Q01DX009 (ip), vehicle: water): 150 % of control
T/C (endpoint: mean survival time, dose: 50.0 mg/kg/injection, schedule: Q01DX009 (ip), vehicle: water): 115 % of control
T/C (endpoint: mean survival time, dose: 100.0 mg/kg/injection, schedule: Q01DX009 (ip), vehicle: water): 124 % of control

CCC1(C)CCC2(C)C(CCC3C2CCCC3(C)CO)C1 (stereo not drawn)
T/C [5]: 94 % of control
T/C [6]: 88 % of control
T/C (endpoint: mean survival time, dose: 400.0 mg/kg/injection, schedule: Q01DX001 (ip), vehicle: saline with Tween-80): 96 % of control

CC(C)(C)C(=O)CC(=O)C(C)(C)C.CC(C)(C)C(=O)CC(=O)C(C)(C)C.CC(C)(C)C(=O)CC(=O)C(C)(C)C.[Dy]
T/C [7]: 97 % of control
T/C [8]: 94 % of control
T/C [9]: 94 % of control

COc1cc(/C=N/n2cnnc2)cc(OC)c1OC
T/C [7]: 101 % of control
T/C [8]: 95 % of control
T/C [9]: 96 % of control
